From PubChem BioAssay (NCI)
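Briefly, cells in 96-well plates were exposed to five compound concentrations for 48 h, and endpoints were estimated by linear interpolation. The concentration for 50% growth inhibition is given as GI50. At the TGI there is no net growth.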 *1 amine or outer side, *2 acyl side, *3 side chain or, on linkers, in order; H or OH if unused. Where a SMILES comes first, the peptide text is derived from it. Bridges are numbered along the chain shown (N, C = ends). Roman numbers before positions name the chains, in order. [ ]: non-standard residue; d: D form. Actinocin(9to1) = Cc1c2oc3c(C)ccc(C(=O)[*:1])c3nc-2c(C(=O)[*:2])c(N)c1=O; NMeV = CN[CH](C(=O)O)C(C)C; Sar = CNCC(=O)O

Experiments:
Test in all cases: NCI tumour cell line growth inhibition, 48 h
[1] = system: LOX IMVI melanoma
[2] = system: UACC-62 melanoma
[3] = system: OVCAR-8 ovarian
[4] = system: SF-295 CNS
[5] = system: MDA-N
[6] = system: HCT-15 colon
[7] = system: HOP-62 NSCLC
[8] = system: M14 melanoma
[9] = system: NCI-H460 lung
[10] = system: CCRF-CEM leukemia

| SMILES | TGI [1] [µM] | TGI [2] [µM] | TGI [3] [µM] | TGI [4] [µM] | TGI [5] [µM] | TGI [6] [µM] | TGI [7] [µM] | TGI [8] [µM] | TGI [9] [µM] | TGI [10] [µM] | GI50 [10] [µM] | GI50 [1] [µM] | GI50 [2] [µM] | GI50 [3] [µM] | GI50 [4] [µM] | GI50 [6] [µM] | GI50 [7] [µM] | GI50 [9] [µM] | GI50 [8] [µM] |
| --- | --- | --- | --- | --- | --- | --- | --- | --- | --- | --- | --- | --- | --- | --- | --- | --- | --- | --- | --- |
| C=C(C)[C@@H]1CC[C@]2(C(=O)OC3OC(COC4OC(CO)C(OC5OC(C)C(O)C(O)C5O)C(O)C4O)C(O)C(O)C3O)CC[C@]3(C)[C@H](CC[C@@H]4[C@@]5(C)CC[C@H](O)[C@@](C)(CO)[C@@H]5CC[C@]43C)[C@@H]12 (some centres undefined) | > 8.27 | 4.76 | > 10 | > 8.59 | > 10 | > 9.68 | > 10 | > 10 | 5.11 | – | – | – | – | – | – | – | – | – | – |
| COc1ccc(C(=O)/C=C/c2ccc(OCCCOc3ccc(/C=C/C(=O)c4ccc(OC)c(OC)c4)cc3)cc2)cc1OC | – | > 100 | > 100 | > 100 | > 100 | > 100 | > 100 | > 100 | > 100 | > 100 | – | – | – | – | – | – | – | – | – |
| Cn1cnc(/C=C/C#N)c1 | – | > 100 | > 100 | > 100 | > 100 | > 100 | > 100 | > 100 | > 100 | > 100 | – | – | – | – | – | – | – | – | – |
| NNc1nnc(-c2ccccc2)nc1Cc1ccccc1 | 30.5 | 16.1 | 39.1 | – | – | > 100 | 9.45 | 45.5 | > 100 | > 100 | – | – | – | – | – | – | – | – | – |
| COCCN(C(=O)c1ccccc1)C1CCC(=O)c2[nH]c3ccccc3c21 (centres undefined) | > 39.4 | 36.5 | 21.3 | > 56.8 | – | 31.9 | 11.5 | 20.4 | 34.9 | 26.8 | – | – | – | – | – | – | – | – | – |
| C/C=C\C(CC(=O)NCCc1c[nH]c2ccccc12)CC(=O)OC (centres undefined) | – | > 100 | > 100 | > 100 | > 100 | > 100 | > 100 | > 100 | > 100 | – | – | – | – | – | – | – | – | – | – |
| C=C(C)C(=O)O[C@H]1CC2(CO)O[C@@H]2CC/C(COC(C)=O)=C/C2OC(=O)C(=C)[C@@H]21 (some centres undefined) | > 60 | > 100 | 49.8 | > 100 | – | > 96.7 | > 100 | 49.1 | > 100 | 39.3 | – | – | – | – | – | – | – | – | – |
| COc1ccccc1NC(=O)CSC(N)=O | > 100 | 68.3 | > 100 | > 100 | – | > 100 | 80.2 | > 100 | > 100 | > 100 | – | – | – | – | – | – | – | – | – |
| O=c1[nH]nc(N/N=C\c2ccc(Cl)cc2)c2ccccc12 | – | 39.4 | 54.8 | 34 | – | 34.9 | – | 35.4 | 47.9 | > 100 | – | – | – | – | – | – | – | – | – |
| Cc1cc(C)c(C#N)c(SC(=S)NC(=O)c2ccccc2)n1 | – | > 100 | – | – | > 100 | > 100 | > 100 | > 100 | > 100 | > 100 | – | – | – | – | – | – | – | – | – |
| CC(C)NCCNC(=O)c1ccccc1Nc1c(Cl)cccc1Cl | 20.6 | 30.1 | 34.4 | 28.5 | – | 26.5 | 25.4 | 25.1 | 11 | 27.1 | – | – | – | – | – | – | – | – | – |
| O=C1NC(=S)N/C1=C\c1ccc(Sc2ccccc2C(=O)O)s1 | > 100 | > 100 | > 100 | > 100 | > 100 | > 100 | > 100 | – | > 100 | – | – | – | – | – | – | – | – | – | – |
| Cc1cccc(=O)c([O-])c1.Cc1cccc(=O)c([O-])c1.Cc1cccc(=O)c([O-])c1.Cc1cccc(=O)c([O-])c1.[Th+4] | > 100 | 19.6 | > 100 | > 100 | – | > 100 | > 100 | 42.1 | > 60.7 | 49.7 | 2.52 | – | – | – | – | – | – | – | – |
| COc1ccc(-c2cc(-c3ccc(OC)c(OC)c3)nc(SCCCC(=O)NO)n2)cc1 | 1.06 | 2.68 | > 100 | 3.77 | – | 3.59 | 6.47 | – | 5.24 | > 100 | 1.36 | 0.243 | 1.14 | 0.782 | 1.74 | 0.553 | 1.47 | 0.842 | – |
| c1cc2c3c(c1)[C@@H]1O[C@@H]1c1cccc(c1-3)[C@@H]1O[C@H]21 | 10.7 | 33.3 | 46.2 | > 100 | 41.9 | 47.2 | > 100 | 34.1 | – | – | – | – | – | – | – | – | – | – | – |
| COc1ccc(C2C3=CONC3CC3CCCCC32)cc1 (centres undefined) | > 100 | > 100 | > 100 | – | – | – | > 100 | > 100 | > 100 | > 100 | – | – | – | – | – | – | – | – | – |

| SMILES | TGI [1] [µM] | TGI [2] [µM] | TGI [3] [µM] | TGI [4] [µM] | TGI [5] [µM] | TGI [6] [µM] | TGI [7] [µM] | TGI [8] [µM] | TGI [9] [µM] | TGI [10] [µM] | GI50 [10] [µM] | GI50 [1] [µM] | GI50 [2] [µM] | GI50 [3] [µM] | GI50 [4] [µM] | GI50 [6] [µM] | GI50 [7] [µM] | GI50 [9] [µM] | GI50 [8] [µM] |
| --- | --- | --- | --- | --- | --- | --- | --- | --- | --- | --- | --- | --- | --- | --- | --- | --- | --- | --- | --- |
| CCCCNC(=S)Nc1nc(C(=O)NNC(=S)NCc2ccccc2)cs1 | > 100 | > 100 | > 100 | > 100 | > 100 | > 100 | > 100 | > 100 | – | – | – | – | – | – | – | – | – | – | – |
| O=[N+]([O-])c1cccc([N+](=O)[O-])c1Cl | 6.88 | 42.9 | 31.5 | 34.8 | – | 31.6 | > 100 | > 100 | > 100 | – | – | – | – | – | – | – | – | – | – |
| CCCCN(CCCC)C1=Nc2ccccc2-n2c(nnc2C(=O)OCC)C1 | > 100 | > 100 | > 100 | > 100 | – | – | > 100 | > 100 | 89.4 | > 100 | – | – | – | – | – | – | – | – | – |
| CCOC(=O)COC1=Nc2cc(OC)c(OC)c3nc(Cl)cc(c23)C1=O | 4.23 | 3.17 | 9.8 | 24 | 2.63 | 6.16 | 7.97 | 3.08 | 39.3 | – | – | – | – | – | – | – | – | – | – |
| N#C[C@H]1C(=O)C(c2nc3ccccc3[nH]2)S[C@H]1c1ccccc1 (some centres undefined) | > 100 | 36.7 | > 100 | 86.2 | – | > 100 | – | > 100 | > 100 | > 100 | – | – | – | – | – | – | – | – | – |
| C=C1C(=O)O[C@H]2[C@H]1CC/C(COC(=O)/C=C/C(=O)OC/C1=C/CC[C@@]3(C)O[C@H]3[C@H]3OC(=O)C(=C)[C@@H]3CC1)=C\CC[C@@]1(C)O[C@@H]21 | 2.4 | 2.68 | 3.05 | > 100 | – | – | > 100 | 3.89 | > 100 | – | – | 1.07 | 1.21 | 1.53 | 6.77 | – | 5.43 | 5.2 | 1.26 |
| O=C1/C(=C/C=C/c2ccccc2)CCC1CNc1ccc(Br)cc1 (centres undefined) | > 100 | > 100 | > 100 | > 100 | – | > 100 | > 100 | > 100 | > 100 | > 100 | – | – | – | – | – | – | – | – | – |
| Cn1c(O)c(/C=N/c2ncccn2)c(=O)[nH]c1=O | > 100 | > 100 | > 100 | > 100 | > 100 | > 100 | > 100 | > 100 | > 100 | – | – | – | – | – | – | – | – | – | – |
| Oc1ccc(O)c(Sc2nnc(CCCCCCCCc3nnc(Sc4cc(O)ccc4O)o3)o2)c1 | – | > 100 | – | > 100 | 32.9 | > 100 | > 100 | > 100 | > 100 | – | – | – | – | – | – | – | – | – | – |
| Cc1ccc(Cl)c2c(=O)cc(-c3ccccc3)[nH]c12 | > 100 | > 100 | > 100 | > 100 | – | > 100 | > 100 | > 100 | > 100 | > 100 | – | – | – | – | – | – | – | – | – |
| S=c1oc(CCCCCCCCc2nn(CNc3ccc(Cl)cc3)c(=S)o2)nn1CNc1ccc(Cl)cc1 | – | > 100 | – | > 100 | > 100 | > 100 | 76.1 | > 100 | > 100 | – | – | – | – | – | – | – | – | – | – |
| Cc1ccc(S(=O)(=O)CC2CCCn3c2c(C#N)c2ccccc23)cc1 (centres undefined) | > 100 | > 100 | > 100 | > 100 | – | > 100 | > 100 | > 100 | – | > 100 | – | – | – | – | – | – | – | – | – |
| Cc1c2oc3c(C)ccc(C(=O)NC4C(=O)NC(Cc5ccc(O)cc5)C(=O)N5CCCC5C(=O)N(C)CC(=O)N(C)C(C(C)C)C(=O)OC4C)c3nc-2c(C(=O)NC2C(=O)NC(Cc3ccc(O)cc3)C(=O)N3CCCC3C(=O)N(C)CC(=O)N(C)C(C(C)C)C(=O)OC2C)c(N)c1=O (centres undefined) (I: TYP[Sar][NMeV] / II: TYP[Sar][NMeV]; ester I:1-I:C, II:1-II:C; linker I:N-II:N via Actinocin(9to1); configuration not given here) | 19.9 | > 67 | > 100 | > 54.6 | > 100 | > 100 | > 52.2 | 28.9 | > 100 | – | – | – | – | – | – | – | – | – | – |
| NC(=O)CC[C@H]1C(=O)N=C(N)N1C(=O)OCc1ccccc1 | > 100 | > 100 | > 100 | > 100 | > 100 | > 100 | > 100 | – | > 100 | – | – | – | – | – | – | – | – | – | – |
| COC(C/C=C\C=C\CC/C=C/CC(C)/C=C/C(=C\C(=O)O)CC(=O)O)/C(C)=C\C=C(/C)C(=O)O (centres undefined) | – | > 100 | – | > 100 | > 100 | > 100 | > 100 | > 100 | > 100 | > 100 | – | – | – | – | – | – | – | – | – |
| O=C(NCCNCCO)N/N=C/c1ccccc1 | > 100 | > 100 | > 100 | > 100 | – | > 100 | – | > 100 | > 100 | > 100 | – | – | – | – | – | – | – | – | – |
